# Tests used:
# [1] = test system: melanomas, SW480 colorectal cancer and MCF7 breast cancer; details: cited from earlier work
# [2] = test system: tumor cells; details: cited from earlier work
# [3] = test system: Hela cells; test: Hela tumor mass growth in nude mice (tumor weight, inhibition rate); type: in vivo, Balb/c nude mice; details: i.v. twice every week, 10 times, 8-oxodGTP 500 μg/kg/time, 5-FU 15 mg/kg/time
# Procedure: 5×10^6 Hela cells (200 μl) were inoculated subcutaneously into the armpit of nude mice. After growing to a certain size, the tumor mass was reinoculated subcutaneously into the armpit of 24 nude mice, which were then randomly grouped into the 5-FU positive control group, the blank carrier control group, and the 8-oxodGTP group, and on the second day after the second inoculation, these nude mice were dosed intravenously. The 5-FU group was injected at a dose of 15 mg/kg/time, the 8-oxodGTP group was injected at a dose of 500 μg/kg/time, and the carrier control group was injected at an equal volume of blank carrier reagents. The injections were performed twice every week, for a total of 10 times. After the injections, the tumor mass was taken and weighed, so as to calculate the inhibition rate (inhibition rate=(1-T experimental group/C control group)×100%).
Structure (SMILES),Effect in nude mice transplantation experiments [1],Effect of MTH1 inhibition on tumor cells [2],Tumor weight [3] [mg],Inhibition rate ([3]; vs blank carrier group) [%]
Nc1nc(NC2CC2)cc(-c2cccc(Cl)c2Cl)n1 [TH588],therapeutic effects,selectively kill tumor cells,–,–
CNc1cc(-c2cccc(Cl)c2Cl)nc(N)n1 [TH287],–,selectively kill tumor cells,–,–
"O=c1[nH]cc(F)c(=O)[nH]1 [5-FU, 5-fluorouracil]",–,–,988 ± 436.94,18

# Reference: patent publication US10335427B2, “Tumor prevention and treatment drug and applications thereof” (priority 2016, dated 2019)
